Laboratory results as given in the kinase profiling compilation of Christmann-Franck et al. (2016).

What was measured:
Experiment in all cases: Caliper, Mobility shift assay off-chip
[1] = system: ABL1 (human), P00519 [Q252H]
[2] = target: ABL2 (human) (UniProt P42684)
[3] = target: AKT1 (human) (UniProt P31749)
[4] = target: AKT2 (human) (UniProt P31751)
[5] = target: AKT3 (human) (UniProt Q9Y243)
[6] = target: AURKB (human) (UniProt Q96GD4)
[7] = target: BMX (human) (UniProt P51813)
[8] = target: CAMK2D (human) (UniProt Q13557)
[9] = target: CAMK2G (human) (UniProt Q13555)
[10] = target: CDK2 (human) (UniProt P24941)
[11] = target: EGFR (human) (UniProt P00533)
[12] = target: FER (human) (UniProt P16591)
[13] = system: FLT3 (human), P36888 [D835Y]
[14] = target: IKBKB (human) (UniProt O14920)
[15] = target: IRAK4 (human) (UniProt Q9NWZ3)
[16] = target: LYN (human) (UniProt P07948)
[17] = target: MAPK12 (human) (UniProt P53778)
[18] = target: MAPKAPK2 (human) (UniProt P49137)
[19] = target: MAPKAPK3 (human) (UniProt Q16644)
[20] = target: NEK2 (human) (UniProt P51955)
[21] = target: PAK2 (human) (UniProt Q13177)
[22] = target: PIM1 (human) (UniProt P11309)
[23] = target: PRKCA (human) (UniProt P17252)
[24] = target: PRKCB1 (human) (UniProt P05771)
[25] = target: PRKCB2 (human) (UniProt P05771)
[26] = target: PRKCD (human) (UniProt Q05655)
[27] = target: PRKCE (human) (UniProt Q02156)
[28] = target: PRKD3 (human) (UniProt O94806)
[29] = target: RPS6KA1 KD1 KD2 (human) (UniProt Q15418)
[30] = target: RPS6KA2 KD1 KD2 (human) (UniProt Q15349)
[31] = target: SGK2 (human) (UniProt Q9HBY8)
[32] = target: SRC (human) (UniProt P12931)
[33] = target: STK3 (human) (UniProt Q13188)
[34] = target: SYK (human) (UniProt P43405)

Sequence of AKT1 (human) (P31749 whole entry, looked up): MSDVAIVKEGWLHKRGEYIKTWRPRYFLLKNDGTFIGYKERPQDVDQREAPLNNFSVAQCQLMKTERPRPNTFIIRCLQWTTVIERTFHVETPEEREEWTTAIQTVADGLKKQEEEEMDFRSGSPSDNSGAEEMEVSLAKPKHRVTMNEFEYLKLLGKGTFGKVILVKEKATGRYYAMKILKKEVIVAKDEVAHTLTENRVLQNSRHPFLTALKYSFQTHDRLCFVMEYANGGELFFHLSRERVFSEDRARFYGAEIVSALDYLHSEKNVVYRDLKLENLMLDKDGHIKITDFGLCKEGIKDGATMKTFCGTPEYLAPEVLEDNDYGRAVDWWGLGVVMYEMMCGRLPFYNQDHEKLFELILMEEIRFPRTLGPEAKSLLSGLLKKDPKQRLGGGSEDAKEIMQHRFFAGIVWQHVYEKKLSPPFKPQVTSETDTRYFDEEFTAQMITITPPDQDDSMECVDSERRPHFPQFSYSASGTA
Sequence of FER (human) (P16591 whole entry, looked up): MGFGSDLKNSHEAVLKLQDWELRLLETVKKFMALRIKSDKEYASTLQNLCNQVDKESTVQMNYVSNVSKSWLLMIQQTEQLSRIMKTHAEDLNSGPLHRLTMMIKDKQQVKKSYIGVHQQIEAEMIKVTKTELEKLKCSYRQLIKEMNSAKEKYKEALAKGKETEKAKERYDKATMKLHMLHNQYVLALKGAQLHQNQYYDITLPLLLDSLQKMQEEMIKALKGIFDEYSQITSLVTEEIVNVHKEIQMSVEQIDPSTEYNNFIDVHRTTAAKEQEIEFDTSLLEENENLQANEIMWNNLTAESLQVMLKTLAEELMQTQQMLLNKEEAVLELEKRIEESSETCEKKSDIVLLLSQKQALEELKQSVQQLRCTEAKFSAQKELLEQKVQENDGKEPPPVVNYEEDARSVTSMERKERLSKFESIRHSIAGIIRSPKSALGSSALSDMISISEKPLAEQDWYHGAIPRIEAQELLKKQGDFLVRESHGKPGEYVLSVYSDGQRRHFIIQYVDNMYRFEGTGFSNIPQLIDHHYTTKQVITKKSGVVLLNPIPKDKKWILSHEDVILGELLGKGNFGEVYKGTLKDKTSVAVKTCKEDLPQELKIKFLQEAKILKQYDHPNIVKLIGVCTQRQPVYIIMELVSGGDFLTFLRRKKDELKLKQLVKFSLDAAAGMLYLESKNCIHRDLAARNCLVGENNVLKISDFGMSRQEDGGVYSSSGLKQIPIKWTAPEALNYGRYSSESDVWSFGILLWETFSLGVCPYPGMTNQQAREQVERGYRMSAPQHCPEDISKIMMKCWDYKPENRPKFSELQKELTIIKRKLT
Sequence of NEK2 (human) (P51955 whole entry, looked up): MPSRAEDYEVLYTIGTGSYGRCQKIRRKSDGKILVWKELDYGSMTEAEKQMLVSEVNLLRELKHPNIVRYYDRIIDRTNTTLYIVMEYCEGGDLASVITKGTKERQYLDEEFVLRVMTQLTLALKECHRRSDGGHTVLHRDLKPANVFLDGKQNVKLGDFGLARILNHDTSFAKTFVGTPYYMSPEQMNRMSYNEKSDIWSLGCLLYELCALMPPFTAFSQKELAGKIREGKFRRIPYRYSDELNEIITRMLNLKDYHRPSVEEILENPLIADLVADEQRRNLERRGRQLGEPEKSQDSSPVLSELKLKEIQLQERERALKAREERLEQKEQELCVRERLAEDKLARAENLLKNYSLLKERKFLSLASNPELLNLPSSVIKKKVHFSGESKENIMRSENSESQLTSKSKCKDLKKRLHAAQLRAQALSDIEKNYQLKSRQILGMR
Sequence of PRKCD (human) (Q05655 whole entry, looked up): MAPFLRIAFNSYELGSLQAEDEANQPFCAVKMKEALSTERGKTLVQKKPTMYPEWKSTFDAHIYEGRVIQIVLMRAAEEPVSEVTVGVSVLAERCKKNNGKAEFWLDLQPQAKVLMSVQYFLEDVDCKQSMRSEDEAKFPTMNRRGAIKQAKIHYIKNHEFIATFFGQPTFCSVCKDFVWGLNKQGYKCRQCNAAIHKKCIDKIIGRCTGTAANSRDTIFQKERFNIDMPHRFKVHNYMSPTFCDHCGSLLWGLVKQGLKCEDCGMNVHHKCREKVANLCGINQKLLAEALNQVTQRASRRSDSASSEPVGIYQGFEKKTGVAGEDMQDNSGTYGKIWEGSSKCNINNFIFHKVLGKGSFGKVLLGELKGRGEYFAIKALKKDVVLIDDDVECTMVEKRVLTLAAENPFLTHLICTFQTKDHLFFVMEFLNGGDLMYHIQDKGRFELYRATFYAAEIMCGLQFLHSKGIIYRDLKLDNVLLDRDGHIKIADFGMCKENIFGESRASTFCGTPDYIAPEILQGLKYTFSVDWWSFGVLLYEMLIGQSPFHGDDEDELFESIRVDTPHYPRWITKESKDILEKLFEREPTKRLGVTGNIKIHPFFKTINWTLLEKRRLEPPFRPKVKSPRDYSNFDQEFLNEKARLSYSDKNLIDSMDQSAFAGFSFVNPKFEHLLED
Sequence of PRKCE (human) (Q02156 whole entry, looked up): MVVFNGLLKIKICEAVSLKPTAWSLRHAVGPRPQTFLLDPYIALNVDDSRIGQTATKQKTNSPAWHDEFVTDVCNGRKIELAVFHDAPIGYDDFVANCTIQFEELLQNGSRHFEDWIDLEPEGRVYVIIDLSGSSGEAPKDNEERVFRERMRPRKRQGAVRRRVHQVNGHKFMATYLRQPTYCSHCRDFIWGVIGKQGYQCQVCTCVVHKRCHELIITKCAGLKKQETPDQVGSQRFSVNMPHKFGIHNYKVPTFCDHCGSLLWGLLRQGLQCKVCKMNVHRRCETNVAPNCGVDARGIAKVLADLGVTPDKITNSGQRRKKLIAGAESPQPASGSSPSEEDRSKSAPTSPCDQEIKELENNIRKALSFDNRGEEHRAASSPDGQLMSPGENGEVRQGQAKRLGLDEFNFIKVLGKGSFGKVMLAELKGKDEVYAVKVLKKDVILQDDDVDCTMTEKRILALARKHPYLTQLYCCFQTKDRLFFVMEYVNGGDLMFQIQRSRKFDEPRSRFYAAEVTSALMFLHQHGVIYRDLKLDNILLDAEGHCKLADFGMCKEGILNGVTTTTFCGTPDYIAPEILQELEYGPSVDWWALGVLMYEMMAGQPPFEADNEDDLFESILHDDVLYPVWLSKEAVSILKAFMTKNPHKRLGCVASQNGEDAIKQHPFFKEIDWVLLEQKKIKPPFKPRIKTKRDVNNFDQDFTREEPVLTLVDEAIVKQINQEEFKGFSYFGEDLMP
Sequence of RPS6KA2 KD1 KD2 (human) (Q15349 whole entry, looked up): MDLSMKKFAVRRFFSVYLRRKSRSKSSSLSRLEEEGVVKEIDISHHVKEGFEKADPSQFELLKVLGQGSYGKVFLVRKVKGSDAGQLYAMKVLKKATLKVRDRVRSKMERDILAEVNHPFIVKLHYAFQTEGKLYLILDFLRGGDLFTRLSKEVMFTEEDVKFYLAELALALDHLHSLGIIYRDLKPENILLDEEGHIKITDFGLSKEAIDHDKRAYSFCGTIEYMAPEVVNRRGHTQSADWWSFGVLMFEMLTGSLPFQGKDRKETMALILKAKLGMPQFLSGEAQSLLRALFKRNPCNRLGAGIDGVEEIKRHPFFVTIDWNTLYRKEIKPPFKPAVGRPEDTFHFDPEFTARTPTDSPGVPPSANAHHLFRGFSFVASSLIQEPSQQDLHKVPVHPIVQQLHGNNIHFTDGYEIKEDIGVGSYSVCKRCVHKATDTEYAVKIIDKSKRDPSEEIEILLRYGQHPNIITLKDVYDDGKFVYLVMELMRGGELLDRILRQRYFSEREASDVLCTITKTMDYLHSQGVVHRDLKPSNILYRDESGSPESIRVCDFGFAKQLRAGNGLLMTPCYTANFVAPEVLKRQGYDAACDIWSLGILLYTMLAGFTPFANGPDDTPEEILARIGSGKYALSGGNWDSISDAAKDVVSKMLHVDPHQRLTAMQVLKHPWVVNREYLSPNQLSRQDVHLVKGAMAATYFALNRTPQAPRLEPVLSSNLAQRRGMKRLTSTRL
Sequence of SRC (human) (P12931 whole entry, looked up): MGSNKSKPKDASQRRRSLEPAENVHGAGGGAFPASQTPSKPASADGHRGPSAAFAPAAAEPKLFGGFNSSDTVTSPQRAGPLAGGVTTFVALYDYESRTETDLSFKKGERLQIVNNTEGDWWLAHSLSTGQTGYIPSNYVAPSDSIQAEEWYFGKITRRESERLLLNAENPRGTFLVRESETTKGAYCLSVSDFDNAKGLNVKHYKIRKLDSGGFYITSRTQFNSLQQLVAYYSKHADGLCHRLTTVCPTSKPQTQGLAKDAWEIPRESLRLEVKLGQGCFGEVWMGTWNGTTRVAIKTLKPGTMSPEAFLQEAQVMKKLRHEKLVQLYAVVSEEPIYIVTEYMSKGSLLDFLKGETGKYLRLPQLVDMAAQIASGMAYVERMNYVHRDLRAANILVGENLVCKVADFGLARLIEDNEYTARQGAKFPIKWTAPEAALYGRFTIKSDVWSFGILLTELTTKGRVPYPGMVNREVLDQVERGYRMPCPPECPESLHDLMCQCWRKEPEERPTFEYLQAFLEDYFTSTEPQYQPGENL
Sequence of CAMK2D (human) (Q13557 whole entry, looked up): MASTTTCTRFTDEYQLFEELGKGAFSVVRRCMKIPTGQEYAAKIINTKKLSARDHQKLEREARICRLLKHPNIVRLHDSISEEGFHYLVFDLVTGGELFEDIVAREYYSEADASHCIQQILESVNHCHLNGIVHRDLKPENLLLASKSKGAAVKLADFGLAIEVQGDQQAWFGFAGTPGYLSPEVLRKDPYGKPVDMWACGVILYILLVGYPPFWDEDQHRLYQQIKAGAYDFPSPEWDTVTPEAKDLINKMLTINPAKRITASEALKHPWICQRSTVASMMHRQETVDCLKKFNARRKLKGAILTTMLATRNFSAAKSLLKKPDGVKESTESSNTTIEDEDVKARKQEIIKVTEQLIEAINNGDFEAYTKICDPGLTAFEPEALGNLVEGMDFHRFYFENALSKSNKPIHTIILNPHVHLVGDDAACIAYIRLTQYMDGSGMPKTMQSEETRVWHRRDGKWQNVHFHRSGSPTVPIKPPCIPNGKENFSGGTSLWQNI

O=c1c2cc(CS(=O)(=O)NCc3ccccn3)ccc2ccc2ncc(C3CCNCC3)cc12
inhibition ([1]; compound 0.01 µM): 3.6% | inhibition ([1]; compound 0.1 µM): 26.3% | inhibition ([2]; compound 0.01 µM): 4.8% | inhibition ([2]; compound 0.1 µM): 3.1% | inhibition ([3]; compound 0.01 µM): 2.8% | inhibition ([3]; compound 0.1 µM): -1.1% | inhibition ([4]; compound 0.01 µM): -0.2% | inhibition ([4]; compound 0.1 µM): -1.6% | inhibition ([5]; compound 0.01 µM): -6.5% | inhibition ([5]; compound 0.1 µM): 5.2% | inhibition ([6]; compound 0.01 µM): 3.2% | inhibition ([6]; compound 0.1 µM): 17% | inhibition ([7]; compound 0.01 µM): -12.1% | inhibition ([7]; compound 0.1 µM): -3.8% | inhibition ([8]; compound 0.01 µM): 1.7% | inhibition ([8]; compound 0.1 µM): 13.2% | inhibition ([9]; compound 0.01 µM): 6.3% | inhibition ([9]; compound 0.1 µM): 2.1% | inhibition ([10]; compound 0.01 µM): -0.9% | inhibition ([10]; compound 0.1 µM): -0.9% | inhibition ([11]; compound 0.01 µM): -19.5% | inhibition ([11]; compound 0.1 µM): -36.5% | inhibition ([12]; compound 0.01 µM): -6.3% | inhibition ([12]; compound 0.1 µM): 0.8% | inhibition ([13]; compound 0.01 µM): 2.3% | inhibition ([13]; compound 0.1 µM): 16.7% | inhibition ([14]; compound 0.01 µM): -0.2% | inhibition ([14]; compound 0.1 µM): 0.6% | inhibition ([15]; compound 0.01 µM): 19.1% | inhibition ([15]; compound 0.1 µM): -1.2% | inhibition ([16]; compound 0.01 µM): -6% | inhibition ([16]; compound 0.1 µM): -9.2% | inhibition ([17]; compound 0.01 µM): -3.3% | inhibition ([17]; compound 0.1 µM): -4.6% | inhibition ([18]; compound 0.01 µM): 0.4% | inhibition ([18]; compound 0.1 µM): -1.9% | inhibition ([19]; compound 0.01 µM): -0.3% | inhibition ([19]; compound 0.1 µM): -0.3% | inhibition ([20]; compound 0.01 µM): -2.6% | inhibition ([20]; compound 0.1 µM): -2.3% | inhibition ([21]; compound 0.01 µM): 0.1% | inhibition ([21]; compound 0.1 µM): 3.6% | inhibition ([22]; compound 0.01 µM): -4.8% | inhibition ([22]; compound 0.1 µM): -6.2% | inhibition ([23]; compound 0.01 µM): 0.2% | inhibition ([23]; compound 0.1 µM): 1.3% | inhibition ([24]; compound 0.01 µM): 4.1% | inhibition ([24]; compound 0.1 µM): 6.7% | inhibition ([25]; compound 0.01 µM): 14.8% | inhibition ([25]; compound 0.1 µM): 6% | inhibition ([26]; compound 0.01 µM): 11% | inhibition ([26]; compound 0.1 µM): 2.4% | inhibition ([27]; compound 0.01 µM): 1.3% | inhibition ([27]; compound 0.1 µM): -2% | inhibition ([28]; compound 0.01 µM): 3.2% | inhibition ([28]; compound 0.1 µM): -5.2% | inhibition ([29]; compound 0.01 µM): -1.6% | inhibition ([29]; compound 0.1 µM): 13.5% | inhibition ([30]; compound 0.01 µM): -8.9% | inhibition ([30]; compound 0.1 µM): 2% | inhibition ([31]; compound 0.01 µM): -4.2% | inhibition ([31]; compound 0.1 µM): 4.7% | inhibition ([32]; compound 0.01 µM): -3.8% | inhibition ([32]; compound 0.1 µM): -4.2% | inhibition ([33]; compound 0.01 µM): 1.5% | inhibition ([33]; compound 0.1 µM): 0.6% | inhibition ([34]; compound 0.01 µM): -4.6% | inhibition ([34]; compound 0.1 µM): 6.2%
